Source: ChEMBL document CHEMBL1201862, “PubChem BioAssay data set” (2004)
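A five-concentration, 48-hour dose response in 96-well plates underlies each endpoint, interpolated linearly between surrounding concentrations. GI50 = concentration required for 50% inhibition of growth.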 Active and inactive are the calls of the source. Cut-off read from the data, not from the text of the source: active = GI50 up to about 1.1 µM and inactive = higher.

Key:
Assay in all cases: growth of human tumour cells (NCI), 48 h
ACHN = system: ACHN
CCRF-CEM = system: CCRF-CEM
COLO 205 = system: COLO 205
DMS-114 = system: DMS-114
HCT-116 = system: HCT-116
HL-60 = system: HL-60
HOP-62 = system: HOP-62
HOP-92 = system: HOP-92
HT-29 = system: HT-29
IGROV-1 = system: IGROV-1
K562 = system: K562
KM-20L2 = system: KM-20L2
KM12 = system: KM12
LXFL 529 = system: LXFL 529
M14 = system: M14
M19-MEL = system: M19-MEL
Malme-3M = system: Malme-3M
NCI-H23 = system: NCI-H23
NCI-H460 = system: NCI-H460
NCI-H522 = system: NCI-H522
OVCAR-3 = system: OVCAR-3
OVCAR-4 = system: OVCAR-4
OVCAR-5 = system: OVCAR-5
RPMI-8226 = system: RPMI-8226
RXF 393 = system: RXF 393
SF-268 = system: SF-268
SF-295 = system: SF-295
SF-539 = system: SF-539
SK-MEL-28 = system: SK-MEL-28
SK-MEL-2 = system: SK-MEL-2
SK-OV-3 = system: SK-OV-3
SNB-19 = system: SNB-19
SNB-75 = system: SNB-75
SNB-78 = system: SNB-78
SR = system: SR
U-251 = system: U-251
UACC-257 = system: UACC-257
UACC-62 = system: UACC-62
UO-31 = system: UO-31
786-0 = system: 786-0
A498 = system: A498
A549 = system: A549
BT-549 = system: BT-549
CAKI-1 = system: CAKI-1
DU-145 = system: DU-145
EKVX = system: EKVX
HCC 2998 = system: HCC 2998
HCT-15 = system: HCT-15
Hs-578T = system: Hs-578T
LOX IMVI = system: LOX IMVI
MCF7 = system: MCF7
MDA-MB-231 = system: MDA-MB-231
MDA-MB-435 = system: MDA-MB-435
MDA-N = system: MDA-N
MOLT-4 = system: MOLT-4
NCI-H226 = system: NCI-H226
NCI/ADR-RES = system: NCI/ADR-RES
OVCAR-8 = system: OVCAR-8
PC-3 = system: PC-3
SK-MEL-5 = system: SK-MEL-5
SN12C = system: SN12C
SW-620 = system: SW-620
T47D = system: T47D
TK-10 = system: TK-10

Measured: GI50

CCc1c(O)c(O)c(C(C)=O)c2c(O)c(-c3c(C)cc4c(CC)c(O)c(O)c(C(C)=O)c4c3O)c(C)cc12
inactive: ACHN 12 µM | CCRF-CEM 2.7 µM | COLO 205 6.79 µM | DMS-114 5.35 µM | HCT-116 4.17 µM | HL-60 3.08 µM | HOP-62 13.7 µM | HOP-92 2.78 µM | HT-29 5.15 µM | IGROV-1 5.52 µM | K562 2.62 µM | KM-20L2 4.69 µM | KM12 3.74 µM | LXFL 529 4.56 µM | M14 8.75 µM | M19-MEL 11.2 µM | Malme-3M 16.7 µM | NCI-H23 2.82 µM | NCI-H460 7.73 µM | NCI-H522 2.92 µM | OVCAR-3 5.05 µM | OVCAR-4 11.2 µM | OVCAR-5 18.9 µM | RPMI-8226 3.97 µM | RXF 393 6.85 µM | SF-268 11 µM | SF-295 3.03 µM | SF-539 9.04 µM | SK-MEL-28 10.9 µM | SK-MEL-2 7.53 µM | SK-OV-3 > 10 µM | SNB-19 7.67 µM | SNB-75 14.1 µM | SNB-78 2.9 µM | SR 38.3 µM | U-251 8.77 µM | UACC-257 11.1 µM | UACC-62 7.21 µM | UO-31 6.49 µM

CC(C)CC(=O)OC[n+]1ccc(-c2c(COC(=O)NC(C)C)c(COC(=O)NC(C)C)c3n2CCC3)cc1
> 100 µM: HCT-15
inactive: 786-0 > 100 µM | A498 84.3 µM | A549 > 100 µM | ACHN 38.3 µM | BT-549 > 100 µM | CAKI-1 45.2 µM | CCRF-CEM 64.4 µM | COLO 205 > 100 µM | DU-145 > 100 µM | EKVX > 100 µM | HCC 2998 > 100 µM | HCT-116 > 100 µM | HL-60 65.8 µM | HOP-62 > 100 µM | HOP-92 > 100 µM | HT-29 > 100 µM | Hs-578T > 100 µM | IGROV-1 > 100 µM | K562 > 100 µM | KM12 > 100 µM | LOX IMVI > 100 µM | M14 > 100 µM | MCF7 76.4 µM | MDA-MB-231 > 100 µM | MDA-MB-435 > 100 µM | MDA-N > 100 µM | MOLT-4 32.3 µM | Malme-3M > 100 µM | NCI-H226 > 100 µM | NCI-H23 75.2 µM | NCI-H460 76.9 µM | NCI-H522 > 100 µM | NCI/ADR-RES > 100 µM | OVCAR-3 > 100 µM | OVCAR-4 > 100 µM | OVCAR-5 > 100 µM | OVCAR-8 > 100 µM | PC-3 > 100 µM | RPMI-8226 > 100 µM | RXF 393 > 100 µM | SF-268 > 100 µM | SF-295 > 100 µM | SF-539 27.6 µM | SK-MEL-28 > 100 µM | SK-MEL-2 > 100 µM | SK-MEL-5 > 100 µM | SK-OV-3 > 100 µM | SN12C > 100 µM | SNB-19 > 100 µM | SNB-75 > 100 µM | SR 6.19 µM | SW-620 > 100 µM | T47D > 100 µM | TK-10 > 100 µM | U-251 > 100 µM | UACC-257 > 100 µM | UACC-62 83.8 µM | UO-31 > 100 µM

Cc1ccc(NC(=O)CSc2nc(C)nc3c2sc(=S)n3-c2ccccc2)cc1
> 10 µM: HCT-15
inactive: 786-0 2.37 µM | A498 > 10 µM | A549 > 10 µM | ACHN 8.77 µM | BT-549 4.09 µM | CAKI-1 > 10 µM | CCRF-CEM 9.23 µM | COLO 205 6.15 µM | DU-145 > 10 µM | EKVX 5.08 µM | HCC 2998 > 10 µM | HCT-116 4.24 µM | HL-60 > 10 µM | HOP-62 2.29 µM | HOP-92 2.71 µM | HT-29 7.36 µM | Hs-578T 2.66 µM | IGROV-1 > 10 µM | K562 > 10 µM | KM12 > 10 µM | LOX IMVI > 10 µM | M14 2.79 µM | MCF7 > 10 µM | MDA-MB-231 6.3 µM | MDA-MB-435 4.06 µM | MDA-N > 10 µM | MOLT-4 > 10 µM | Malme-3M 7.8 µM | NCI-H226 3.33 µM | NCI-H23 > 10 µM | NCI-H460 5.48 µM | NCI-H522 > 10 µM | NCI/ADR-RES 4.7 µM | OVCAR-3 5.37 µM | OVCAR-4 2.2 µM | OVCAR-5 > 10 µM | OVCAR-8 6.76 µM | PC-3 > 10 µM | RPMI-8226 > 10 µM | RXF 393 1.79 µM | SF-268 6.14 µM | SF-295 5 µM | SF-539 3.01 µM | SK-MEL-28 > 10 µM | SK-MEL-2 > 10 µM | SK-MEL-5 > 10 µM | SK-OV-3 8.2 µM | SN12C 6.49 µM | SNB-19 5.37 µM | SNB-75 2.32 µM | SR 9.89 µM | SW-620 > 10 µM | T47D > 10 µM | TK-10 > 10 µM | U-251 3.84 µM | UACC-257 > 10 µM | UACC-62 > 10 µM
